Experimental data from ChEMBL document CHEMBL5512637, “Development of Membrane-Targeting Fluorescent 2-Phenyl-1H-phenanthro[9,10-d]imidazole-Antimicrobial Peptide Mimic Conjugates against Methicillin-Resistant Staphylococcus aureus” (J Med Chem, 2024).
The source made the active and inactive calls. The calls are words filed in the database; no cut-off is given here.

Experiments:
Escherichia coli = test: Antibacterial activity against Escherichia coli ATCC 25922 incubated for 16 to 18 hrs CLSI based by microbroth dilution assay; type: functional; conditions: time 16-18 hrs
Staphylococcus aureus [1] = test: Antibacterial activity against methicillin-resistant Staphylococcus aureus clinical isolate M-3 incubated for 16 to 18 hrs CLSI based by microbroth dilution assay; type: functional; conditions: time 16-18 hrs
Staphylococcus aureus [2] = test: Antibacterial activity against methicillin-resistant Staphylococcus aureus clinical isolate M-6 incubated for 16 to 18 hrs CLSI based by microbroth dilution assay; type: functional; conditions: time 16-18 hrs
Staphylococcus aureus [3] = test: Antibacterial activity against methicillin-resistant Staphylococcus aureus clinical isolate M-8 incubated for 16 to 18 hrs CLSI based by microbroth dilution assay; type: functional; conditions: time 16-18 hrs
Staphylococcus aureus [4] = test: Antibacterial activity against methicillin-resistant Staphylococcus aureus clinical isolate M-10 incubated for 16 to 18 hrs CLSI based by microbroth dilution assay; type: functional; conditions: time 16-18 hrs
[5] = Hemolytic activity in sheep erythrocytes incubated for 1 hr by absorbance based assay; type: toxicity, cell-based, Ovis aries, Erythrocyte
[6] = Selectivity index, ratio of HC50 for sheep erythrocytes to MIC for Staphylococcus aureus ATCC 29213; type: toxicity; conditions: read-out: Selectivity Index
Staphylococcus aureus [7] = test: Bactericidal activity against methicillin-resistant Staphylococcus aureus clinical isolate M-4 at 4 to 8 times MIC by time kill assay; type: functional, organism-based; conditions: TDE = time-dependent effect
Staphylococcus aureus [8] = test: Bactericidal activity against Staphylococcus aureus ATCC 29213 at 4 times MIC incubated for 2 hrs by time kill assay relative to control; type: functional
Staphylococcus aureus [9] = test: Bactericidal activity against methicillin-resistant Staphylococcus aureus clinical isolate M-4 at 4 times MIC incubated for 6 hrs by time kill assay relative to control; type: functional
Staphylococcus aureus [10] = test: Bactericidal activity against Staphylococcus aureus ATCC 29213 assessed as fold increase in fluorescence intensity at MIC incubated for 180 mins relative to control; type: functional; conditions: 3 h
Staphylococcus aureus [11] = test: Antibacterial activity against Staphylococcus aureus ATCC 29213 at 1 ug/ml in presence of exogenous DNA; type: functional, organism-based; conditions: dose 1.0 µg/ml
Staphylococcus aureus [12] = test: Antibacterial activity against Staphylococcus aureus ATCC 29213 at 1 ug/ml in absence of exogenous DNA; type: functional, organism-based; conditions: dose 1.0 µg/ml
Staphylococcus aureus [13] = test: Disruption of cell membrane in methicillin-resistant Staphylococcus aureus clinical isolate M-4 assessed as rough cell membrane at 8 times MIC incubated for 1 hr by SEM analysis; type: functional, organism-based
Staphylococcus aureus [14] = test: Disruption of cell membrane in methicillin-resistant Staphylococcus aureus clinical isolate M-4 assessed as wrinkled cell membrane at 8 times MIC incubated for 1 hr by SEM analysis; type: functional, organism-based
Staphylococcus aureus [15] = test: Disruption of cell membrane in methicillin-resistant Staphylococcus aureus clinical isolate M-4 assessed as cell membrane rupture at 8 times MIC incubated for 1 hr by SEM analysis; type: functional, organism-based
Staphylococcus aureus [16] = test: Disruption of cell membrane in methicillin-resistant Staphylococcus aureus clinical isolate M-4 assessed as decrease in blue fluorescence at 4 ug/ml incubated for 4 hrs by DAPI/PI staining based laser confocal microscopy; type: functional, organism-based; conditions: dose 4.0 µg/ml
Staphylococcus aureus [17] = test: Disruption of cell membrane in methicillin-resistant Staphylococcus aureus clinical isolate M-4 assessed as DNA leakage at 1 to 8 times MIC incubated for 4 hrs by microspectrophotometry; type: functional, organism-based
Staphylococcus aureus [18] = test: Disruption of cell membrane in methicillin-resistant Staphylococcus aureus clinical isolate M-4 assessed as protein leakage at 1 to 8 times MIC incubated for 4 hrs by BCA assay; type: functional, organism-based
Staphylococcus aureus [19] = test: Disruption of cell membrane in methicillin-resistant Staphylococcus aureus clinical isolate M-4 assessed as increase in intracellular ROS level incubated for 1 hr by DCFH-DA dye based analysis; type: functional, organism-based; conditions: dose 1-32 µg/ml
Staphylococcus aureus [20] = test: Disruption of cell membrane in methicillin-resistant Staphylococcus aureus clinical isolate M-4 assessed as fold increase in intracellular ROS level at 32 ug/ml incubated for 1 hr by DCFH-DA dye based analysis relative to control; type: functional; conditions: dose 32 µg/ml
Staphylococcus aureus [21] = test: Antibacterial activity against methicillin-resistant Staphylococcus aureus clinical isolate M-4 upto 128 ug/ml incubated for 16 to 18 hrs in presence of phosphatidylethanolamine by broth dilution method; type: functional, organism-based; conditions: dose <= 128.0 µg/ml, time 16-18 hrs
[22] = Binding affinity to phosphatidylglycerol (unknown origin) assessed as dissociation constant by ITC analysis
[23] = Cytotoxicity against human L02 cells assessed as cell survival at 16 ug/ml by MTT assay relative to control; type: toxicity, cell-based; conditions: at 16 µg/mL, read-out: Survival
[24] = Cytotoxicity against human L02 cells assessed as cell survival at 32 ug/ml by MTT assay relative to control; type: toxicity, cell-based; conditions: at 32 µg/mL, read-out: Survival
[25] = Stability in sheep plasma at MBC measured for 6 hrs; type: ADME, cell-free, Ovis aries
[26] = Toxicity in KM mouse assessed as red swollen appearance of skin at administration site at 40 to 80 mg/kg, sc measured for 24 hrs; type: organism-based; conditions: in vivo, dose 40-80 mg/kg
[27] = Toxicity in KM mouse assessed as red swollen appearance of skin at administration site at 5 to 20 mg/kg, sc measured for 24 hrs; type: organism-based; conditions: in vivo, dose 5-20 mg/kg
[28] = Toxicity in KM mouse assessed as change in creatinine level at 20 mg/kg, sc measured after 24 hrs; type: organism-based; conditions: in vivo
[29] = Toxicity in KM mouse assessed as change in hemoglobin level at 20 mg/kg, sc measured after 24 hrs; type: organism-based; conditions: in vivo
[30] = Toxicity in KM mouse assessed as change in mean corpuscular volume at 20 mg/kg, sc measured after 24 hrs; type: organism-based; conditions: in vivo
[31] = Toxicity in KM mouse assessed as change in hematocrit level at 20 mg/kg, sc measured after 24 hrs; type: organism-based; conditions: in vivo
[32] = Toxicity in KM mouse assessed as change in RBC count at 20 mg/kg, sc measured after 24 hrs; type: organism-based, Erythrocyte; conditions: in vivo
[33] = Toxicity in KM mouse assessed as change in WBC count at 20 mg/kg, sc measured after 24 hrs; type: organism-based; conditions: in vivo
[34] = Toxicity in KM mouse assessed as histological abnormality in spleen at 20 mg/kg, sc measured after 24 hrs by H and E staining based analysis; type: organism-based; conditions: in vivo
[35] = Toxicity in KM mouse assessed as histological abnormality in lungs at 20 mg/kg, sc measured after 24 hrs by H and E staining based analysis; type: organism-based; conditions: in vivo
Staphylococcus aureus [36] = test: Antibacterial activity against methicillin-resistant Staphylococcus aureus clinical isolate M-4 infected in KM mouse assessed as decrease in abnormality in skin area at 10 mg/kg, sc measured after 24 hrs by H and E staining based analysis; type: functional, organism-based
[37] = Toxicity in KM mouse infected with methicillin-resistant Staphylococcus aureus clinical isolate M-4 assessed as histopathological abnormality in liver at 5 to 10 mg/kg, sc measured after 24 hrs by H and E staining based analysis; type: organism-based; conditions: in vivo, dose 5-10 mg/kg
[38] = Toxicity in KM mouse infected with methicillin-resistant Staphylococcus aureus clinical isolate M-4 assessed as histopathological abnormality in spleen at 5 to 10 mg/kg, sc measured after 24 hrs by H and E staining based analysis; type: organism-based; conditions: in vivo, dose 5-10 mg/kg
[39] = Toxicity in KM mouse infected with methicillin-resistant Staphylococcus aureus clinical isolate M-4 assessed as histopathological abnormality in kidneys at 5 to 10 mg/kg, sc measured after 24 hrs by H and E staining based analysis; type: organism-based; conditions: in vivo, dose 5-10 mg/kg

CCCCCNC(=O)C[N+](C)(C)CCCCn1c(-c2ccc(N(C)C)cc2)nc2c3ccccc3c3ccccc3c21.[Br-]
MIC (Escherichia coli): 32 µg/mL
MIC (Staphylococcus aureus [1]): 1 µg/mL
MIC (Staphylococcus aureus [2]): 0.5 µg/mL
MIC (Staphylococcus aureus [3]): 0.5 µg/mL
MIC (Staphylococcus aureus [4]): 1 µg/mL
HC50 at 1 h [5]: 859 µg/mL
selectivity ratio [6]: 859
Activity (Staphylococcus aureus [7]): Tde
Activity (Staphylococcus aureus [8]): 100%
Activity (Staphylococcus aureus [9]): 100%
fold change (FC) (Staphylococcus aureus [10]): ~1.9
Activity (Staphylococcus aureus [11]): Active
Activity (Staphylococcus aureus [12]): Active
Activity (Staphylococcus aureus [13]): Active
Activity (Staphylococcus aureus [14]): Active
Activity (Staphylococcus aureus [15]): Active
Activity (Staphylococcus aureus [16]): Active
Activity (Staphylococcus aureus [17]): Active
Activity (Staphylococcus aureus [18]): Active
Activity (Staphylococcus aureus [19]): Dose-Dependent Effect
fold change (FC) (Staphylococcus aureus [20]): ~3
Activity (Staphylococcus aureus [21]): Active
Kd [22]: 39.8 µM
viability at 16 ug/ml [23]: 100%
viability at 32 ug/ml [24]: > 72.2%
Stability [25]: Stable
Activity [26]: Toxic
Activity [27]: Non-Toxic
Activity [28]: Non-Toxic
Activity [29]: Non-Toxic
Activity [30]: Non-Toxic
Activity [31]: Non-Toxic
Activity [32]: Non-Toxic
Activity [33]: Non-Toxic
Activity [34]: Non-Toxic
Activity [35]: Non-Toxic
Activity (Staphylococcus aureus [36]): Active
Activity [37]: Non-Toxic
Activity [38]: Non-Toxic
Activity [39]: Non-Toxic
